In patent US20230285402A1, “Compositions and Methods of Modulating Short-Chain Dehydrogenase Activity” (BOARD OF REGENTS OF THE UNIVERSITY OF TEXAS SYSTEM, priority 2013, published 2023):

Assays:
[1] = test system: NSG mice; assay: Homing of CFSE labeled human umbilical cord blood buffy coat cells in NSG mice; settings: in vivo
Description: FIG. 93 illustrates a schema of an experiment in which immune deficient NSG mice are lethally irradiated (IR) and 12 hours later receive a transplant with CFSE dye labeled buffy coat cells from human umbilical cord blood (UCB), and number of transplanted cells that home and survive in the bone marrow of the recipient mice are then determined by FACS at 16 hours post-transplant. In different arms of the experiment mice are treated with vehicle or with SW033291. Drugs are administered following radiation, following the transplant, and again at 8 hours after the transplant.

[2] = test system: cell numbers in a cell culture assay; assay: Toxicity in cell culture assay (decrease of cell numbers); type: cell-based; settings: concentration needed to decrease cell numbers
Description: (§1) Time to inhibition refers to the time needed to inhibit the generation of NADH by 15-PGDH from the moment with drug is added into the reaction mix. Delta Tm refers to the shift in melting temperature of recombinant 15-PGDH in the presence of drug (with cofactor NADH also present). Concentration of Full Cell Line Reporter Induction refers to the concentration of drug that needs to be added to reporter cell line to achieve maximal induction of the 15-PGDH-luciferase gene fusion reporter cassette, as measured by luciferase assays. Hepatocyte stability refers to the half-life of compound in the presence of hepatocytes in culture. Toxicity refers to the concentration of compound needed to decrease cell numbers in a cell culture assay.

[3] = test system: A549 cells; assay: PGE2 in medium of IL1-beta stimulated A549 cells; type: cell-based
[4] = Hepatocyte stability; type: in vitro ADME; settings: in words
Description: as §1

[5] = test system: C57BL/6J mice; assay: Survival of 11Gy irradiated C57BL/6J mice given marrow allograft, SW033291 5 mg/kg IP bid for 21 days, 3 mice per condition; type: in vivo, mouse
Excerpt: The experimental design is depicted in FIG. 50.
Under the conditions of the mouse colony during this study, control mice receiving 100,000-500,000 cells are all dead between days 4-13 of study. […] Such activity would be of particular utility in settings, such as transplantation with umbilical cord stem cells, in which donor cell numbers are limited.

[6] = test system: C57BL/6J mice; assay: Competitive transplant of marrow from treated CD45.2 donor mice; type: in vivo, mouse; settings: donor 5 mg/kg IP daily for 3 doses; weeks 12 and 16
Description: On day 3 mice were sacrificed, marrow flushed and mixed at a 1:1 ratio with vehicle treated CD45.1 marrow. 2 million whole BM cells were injected into the tail vein of lethally irradiated CD45.1 mice and percent chimerism measured via flow cytometry at weeks 8, 12, 16.

[7] = test system: FVB mice; assay: Liver regeneration after partial hepatectomy, FVB mice, SW033291 5 mg/kg IP bid; type: in vivo, mouse
[8] = test system: 15-PGDH-luciferase fusion reporter in V9m, LS174T and V503 cells; assay: 15-PGDH-luciferase fusion reporter induction in colon cancer cell lines; type: cell-based; settings: V9m, LS174T, V503
[9] = test system: mice; assay: Bone marrow transplant after 11Gy, SW033291 5 mg/kg IP twice daily: survival and blood/marrow counts; type: in vivo, mouse
[10] = test system: C57BL/6J female mice; assay: Survival after acetaminophen (Tylenol) 600 mg/kg IP (LD50), C57BL/6J female mice, SW033291 5 mg/kg IP; type: in vivo, mouse; settings: for number of mice surviving: first dose immediately after Tylenol
[11] = test system: bone marrow; assay: Hematopoietic colonies from wild-type mouse bone marrow treated ex vivo; type: cell-based; settings: 0.5 μM, ex vivo on ice 2 hours
Excerpt: Treated marrow is again then plated into methylcellulose for counting of hematopoietic colonies.

[12] = test system: 15-PGDH mRNA; assay: 15-PGDH mRNA by real-time PCR in colon cancer cell lines; type: cell-based
Excerpt: In these studies parental cell lines (not containing the 15-PGDH-luciferase reporter) are employed.

[13] = day 5 after transplant, 500,000 donor cells

SMILES: CCCC[S+]([O-])c1sc2nc(-c3cccs3)cc(-c3ccccc3)c2c1N (stereo not shown) [SW033291, 2-(butylsulfinyl)-4-phenyl-6-(thiophen-2-yl)thieno[2,3-b]pyridin-3-amine]
- increase of homed human cells in recipient mouse bone marrow [1]: ~2 fold
- Toxicity [2]: >10 µM
- rank of PGE2 level in medium ([3]; 100 nM drug): next highest level of PGE2
- 15-PGDH activity in cells as reflected in PGE2 levels ([3]; IL1-beta 23 hours, compound for last 5 hours): clear inhibition of 15-PGDH activity
- highest PGE2 level in medium ([3]; IL-1β 16 h, then compound 8 h): 3000 pg/mL
- Hepatocyte stability [4]: Stable > couple hrs
- Mouse survival (number surviving) ([5]; Day 0, 1 × 10^5 cells): 3
- Mouse survival (number surviving) ([5]; Day 0, 2 × 10^5 cells): 3
- Mouse survival (number surviving) ([5]; Day 0, 5 × 10^5 cells): 3
- Mouse survival (number surviving) ([5]; Day 1, 1 × 10^5 cells): 3
- Mouse survival (number surviving) ([5]; Day 1, 2 × 10^5 cells): 3
- Mouse survival (number surviving) ([5]; Day 1, 5 × 10^5 cells): 3
- Mouse survival (number surviving) ([5]; Day 2, 1 × 10^5 cells): 3
- Mouse survival (number surviving) ([5]; Day 2, 2 × 10^5 cells): 3
- Mouse survival (number surviving) ([5]; Day 2, 5 × 10^5 cells): 3
- Mouse survival (number surviving) ([5]; Day 3, 1 × 10^5 cells): 3
- Mouse survival (number surviving) ([5]; Day 3, 2 × 10^5 cells): 3
- Mouse survival (number surviving) ([5]; Day 3, 5 × 10^5 cells): 3
- Mouse survival (number surviving) ([5]; Day 4, 1 × 10^5 cells): 2
- Mouse survival (number surviving) ([5]; Day 4, 2 × 10^5 cells): 3
- Mouse survival (number surviving) ([5]; Day 4, 5 × 10^5 cells): 3
- Mouse survival (number surviving) ([5]; Day 5, 1 × 10^5 cells): 1
- Mouse survival (number surviving) ([5]; Day 5, 2 × 10^5 cells): 3
- Mouse survival (number surviving) ([5]; Day 5, 5 × 10^5 cells): 3
- Mouse survival (number surviving) ([5]; Day 6, 1 × 10^5 cells): 0
- Mouse survival (number surviving) ([5]; Day 6, 2 × 10^5 cells): 2
- Mouse survival (number surviving) ([5]; Day 6, 5 × 10^5 cells): 3
- Mouse survival (number surviving) ([5]; Day 7, 2 × 10^5 cells): 2
- Mouse survival (number surviving) ([5]; Day 7, 5 × 10^5 cells): 3
- Mouse survival (number surviving) ([5]; Day 8, 2 × 10^5 cells): 2
- Mouse survival (number surviving) ([5]; Day 8, 5 × 10^5 cells): 2
- Mouse survival (number surviving) ([5]; Day 9, 2 × 10^5 cells): 2
- Mouse survival (number surviving) ([5]; Day 9, 5 × 10^5 cells): 2
- Mouse survival (number surviving) ([5]; Day 10, 2 × 10^5 cells): 2
- Mouse survival (number surviving) ([5]; Day 10, 5 × 10^5 cells): 2
- Mouse survival (number surviving) ([5]; Day 11, 2 × 10^5 cells): 2
- Mouse survival (number surviving) ([5]; Day 11, 5 × 10^5 cells): 2
- Mouse survival (number surviving) ([5]; Day 12, 2 × 10^5 cells): 1
- Mouse survival (number surviving) ([5]; Day 12, 5 × 10^5 cells): 2
- Mouse survival (number surviving) ([5]; Day 13, 2 × 10^5 cells): 0
- Mouse survival (number surviving) ([5]; Day 13, 5 × 10^5 cells): 2
- percent blood chimerism of CD45.2 marked cells [6]: significantly increased
- increase in median S-phase (BrdU positive) cells ([7]; post-operative day 2): greater than 2 fold
- greater liver weight than control ([7]; post-operative day 7, dosing from 1 hour before surgery): approximately 25%
- luciferase activity, in words [8]: increase luciferase activity
- median survival vs control ([9]; 100,000 donor cells): approximate doubling of median survival
- survival at 30 days ([9]; 200,000 donor cells): all mice receiving 200,000 donor cells plus SW033291 survived
- survival at 30 days ([9]; 500,000 donor cells): all survived
- total platelet count vs control [9, 13]: significantly higher total platelet count
- total white count vs control [9, 13]: significantly higher total white count
- platelet count ([9]; day 8 after transplant, control 39,500): 77,000
- total white counts vs control ([9]; day 12 after transplant): significantly greater total white counts
- hemoglobin level ([9]; day 12 after transplant, control 8.3): 11.58
- neutrophil count ([9]; day 12 after transplant, control 125): 332
- lymphocyte count vs control ([9]; day 18 after transplant): significantly higher
- platelet counts vs control ([9]; day 18 after transplant): significantly higher platelet counts
- total white count vs control ([9]; day 18 after transplant): significantly higher total white count
- neutrophil count ([9]; day 18 after transplant, control 365): 835
- mean SKL marked bone marrow cells ([9]; day 18 after transplant, control 967): 4127
- number of mice surviving ([10]; 0 hrs, 1 dose/daily, cohort of 6): 6
- number of mice surviving ([10]; 0 hrs, 2 dose/daily, cohort of 6): 6
- Survival (number of mice) ([10]; 0 hrs, bid from 3 hours prior to acetaminophen, 6 doses, cohort of 6): 6
- Survival (number of mice) ([10]; 0 hrs, bid from 48 hours prior to acetaminophen, 9 doses, cohort of 12): 12
- number of mice surviving ([10]; 16 hr, 1 dose/daily, cohort of 6): 6
- number of mice surviving ([10]; 16 hr, 2 dose/daily, cohort of 6): 6
- Survival (number of mice) ([10]; 16 hr, bid from 3 hours prior to acetaminophen, 6 doses, cohort of 6): 6
- Survival (number of mice) ([10]; 16 hr, bid from 48 hours prior to acetaminophen, 9 doses, cohort of 12): 12
- number of mice surviving ([10]; 24 hrs, 1 dose/daily, cohort of 6): 6
- number of mice surviving ([10]; 24 hrs, 2 dose/daily, cohort of 6): 6
- Survival (number of mice) ([10]; 24 hrs, bid from 3 hours prior to acetaminophen, 6 doses, cohort of 6): 5
- Survival (number of mice) ([10]; 24 hrs, bid from 48 hours prior to acetaminophen, 9 doses, cohort of 12): 12
- Survival (number of mice) ([10]; 40 hrs, bid from 48 hours prior to acetaminophen, 9 doses, cohort of 12): 11
- number of mice surviving ([10]; 48 hrs, 2 dose/daily, cohort of 6): 3
- Survival (number of mice) ([10]; 48 hrs, bid from 3 hours prior to acetaminophen, 6 doses, cohort of 6): 3
- Survival (number of mice) ([10]; 48 hrs, bid from 48 hours prior to acetaminophen, 9 doses, cohort of 12): 10
- number of mice surviving ([10]; 64 hrs, 2 dose/daily, cohort of 6): 3
- Survival (number of mice) ([10]; 64 hrs, bid from 3 hours prior to acetaminophen, 6 doses, cohort of 6): 3
- Survival (number of mice) ([10]; 64 hrs, bid from 48 hours prior to acetaminophen, 9 doses, cohort of 12): 10
- number of mice surviving ([10]; 72 hrs, 2 dose/daily, cohort of 6): 3
- Survival (number of mice) ([10]; 72 hrs, bid from 3 hours prior to acetaminophen, 6 doses, cohort of 6): 3
- Survival (number of mice) ([10]; 72 hrs, bid from 48 hours prior to acetaminophen, 9 doses, cohort of 12): 10
- number of mice surviving ([10]; 88 hr, 2 dose/daily, cohort of 6): 3
- Survival (number of mice) ([10]; 88 hr, bid from 3 hours prior to acetaminophen, 6 doses, cohort of 6): 3
- Survival (number of mice) ([10]; 88 hr, bid from 48 hours prior to acetaminophen, 9 doses, cohort of 12): 10
- number of mice surviving ([10]; 96 hr, 2 dose/daily, cohort of 6): 3
- Survival (number of mice) ([10]; 96 hr, bid from 3 hours prior to acetaminophen, 6 doses, cohort of 6): 3
- Survival (number of mice) ([10]; 96 hr, bid from 48 hours prior to acetaminophen, 9 doses, cohort of 12): 10
- number of mice surviving ([10]; 112 hr, 2 dose/daily, cohort of 6): 3
- Survival (number of mice) ([10]; 112 hr, bid from 3 hours prior to acetaminophen, 6 doses, cohort of 6): 3
- Survival (number of mice) ([10]; 112 hr, bid from 48 hours prior to acetaminophen, 9 doses, cohort of 12): 10
- number of mice surviving ([10]; 120 hr, 2 dose/daily, cohort of 6): 3
- Survival (number of mice) ([10]; 120 hr, bid from 3 hours prior to acetaminophen, 6 doses, cohort of 6): 3
- Survival (number of mice) ([10]; 120 hr, bid from 48 hours prior to acetaminophen, 9 doses, cohort of 12): 10
- survival vs control mice ([10]; dosing begun immediately following acetaminophen, once or twice daily, 0-120 hours): No difference
- increase in number of bone marrow derived colonies [11]: approximately 50%
- 15-PGDH mRNA ([12]; V503 cells): slight increase in 15-PGDH mRNA
- 15-PGDH mRNA levels ([12]; treated colon cancer cell lines): do not in general alter 15-PGDH mRNA levels
